The supplement of paper PMC5662764
± gives the standard deviation of the averaged measurements.

Legend:
Assay in all cases: normalised growth rate inhibition (GR value) relative to DMSO control (GR (1 = untreated growth, 0 = cytostasis, <0 = cytotoxic)); higher = less growth inhibition
Conditions in all cases: 72 h
[1] = test system: BT20
Experimental: (§1)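 Breast cancer cell lines (BT-20, Hs 578T, MCF 10A, MCF7, MDA-MB-231, SK-BR-3) were plated in 384-well plates and treated 24 h later with drugs at six concentrations (0.04-10 µM). Viable cells were counted by Hoechst/dead-cell-stain imaging at 0 and 72 h. Counts were normalised to DMSO controls on the same plate to give the relative cell count and the growth-rate inhibition (GR) value; technical plate triplicates were averaged for each biological replicate.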

[2] = test system: SKBR3
Experimental: as §1

[3] = test system: MCF7
Experimental: as §1

[4] = test system: MDAMB231
Experimental: as §1

[5] = test system: HS578T
Experimental: as §1

[6] = test system: MCF10A
Experimental: as §1

Q: What does the source list for CS(=O)(=O)N1CCN(Cc2cc3nc(-c4cccc5[nH]ncc45)nc(N4CCOCC4)c3s2)CC1 [GDC-0941]?
A: normalised growth rate inhibition ([1]; 0.04 µM): 0.717 ± 0.053; normalised growth rate inhibition ([1]; 0.12 µM): 0.689 ± 0.067; normalised growth rate inhibition ([1]; 0.37 µM): 0.502 ± 0.17; normalised growth rate inhibition ([1]; 1.11 µM): 0.258 ± 0.19; normalised growth rate inhibition ([1]; 3.33 µM): 0.0678 ± 0.098; normalised growth rate inhibition ([1]; 10 µM): -0.056 ± 0.052; normalised growth rate inhibition ([2]; 0.04 µM): 0.384 ± 0.11; normalised growth rate inhibition ([2]; 0.12 µM): 0.283 ± 0.088; normalised growth rate inhibition ([2]; 0.37 µM): 0.131 ± 0.099; normalised growth rate inhibition ([2]; 1.11 µM): 0.0555 ± 0.16; normalised growth rate inhibition ([2]; 3.33 µM): 0.00405 ± 0.15; normalised growth rate inhibition ([2]; 10 µM): -0.0817 ± 0.19; normalised growth rate inhibition ([3]; 0.04 µM): 0.331 ± 0.1; normalised growth rate inhibition ([3]; 0.12 µM): 0.176 ± 0.079; normalised growth rate inhibition ([3]; 0.37 µM): 0.0196 ± 0.047; normalised growth rate inhibition ([3]; 1.11 µM): -0.00416 ± 0.0071; normalised growth rate inhibition ([3]; 3.33 µM): -0.0358 ± 0.013; normalised growth rate inhibition ([3]; 10 µM): -0.081 ± 0.069; normalised growth rate inhibition ([4]; 0.04 µM): 0.784 ± 0.092; normalised growth rate inhibition ([4]; 0.12 µM): 0.797 ± 0.069; normalised growth rate inhibition ([4]; 0.37 µM): 0.715 ± 0.011; normalised growth rate inhibition ([4]; 1.11 µM): 0.676 ± 0.056; normalised growth rate inhibition ([4]; 3.33 µM): 0.644 ± 0.053; normalised growth rate inhibition ([4]; 10 µM): 0.372 ± 0.1; normalised growth rate inhibition ([5]; 0.04 µM): 0.779 ± 0.032; normalised growth rate inhibition ([5]; 0.12 µM): 0.675 ± 0.031; normalised growth rate inhibition ([5]; 0.37 µM): 0.568 ± 0.088; normalised growth rate inhibition ([5]; 1.11 µM): 0.466 ± 0.1; normalised growth rate inhibition ([5]; 3.33 µM): 0.408 ± 0.096; normalised growth rate inhibition ([5]; 10 µM): 0.263 ± 0.077; normalised growth rate inhibition ([6]; 0.04 µM): 0.869 ± 0.15; normalised growth rate inhibition ([6]; 0.12 µM): 0.792 ± 0.18; normalised growth rate inhibition ([6]; 0.37 µM): 0.625 ± 0.21; normalised growth rate inhibition ([6]; 1.11 µM): 0.427 ± 0.14; normalised growth rate inhibition ([6]; 3.33 µM): 0.289 ± 0.087; normalised growth rate inhibition ([6]; 10 µM): 0.102 ± 0.038

Q: Oc1cccc(-c2nc(N3CCOCC3)c3oc4ncccc4c3n2)c1 [PI-103] was tested. Which “normalised growth rate inhibition” value ([1]; 0.04 µM) did it give?
A: 0.949 ± 0.084

Q: And the “normalised growth rate inhibition” value ([1]; 0.12 µM)?
A: 0.723 ± 0.26

Q: And the “normalised growth rate inhibition” value ([1]; 0.37 µM)?
A: 0.357 ± 0.32

Q: What about the “normalised growth rate inhibition” value ([1]; 1.11 µM) of the same compound?
A: 0.0983 ± 0.17

Q: What about the “normalised growth rate inhibition” value ([1]; 3.33 µM) of the same compound?
A: -0.0552 ± 0.017

Q: What about the “normalised growth rate inhibition” value ([1]; 10 µM) of the same compound?
A: -0.115 ± 0.034

Q: What about the “normalised growth rate inhibition” value ([2]; 0.04 µM) of the same compound?
A: 0.9 ± 0.045

Q: What about the “normalised growth rate inhibition” value ([2]; 0.12 µM) of the same compound?
A: 0.579 ± 0.1

Q: And the “normalised growth rate inhibition” value ([2]; 0.37 µM)?
A: 0.221 ± 0.052

Q: What about the “normalised growth rate inhibition” value ([2]; 1.11 µM) of the same compound?
A: -0.00817 ± 0.15

Q: And the “normalised growth rate inhibition” value ([2]; 3.33 µM)?
A: -0.0811 ± 0.2

Q: And the “normalised growth rate inhibition” value ([2]; 10 µM)?
A: -0.137 ± 0.17

Q: And the “normalised growth rate inhibition” value ([3]; 0.04 µM)?
A: 0.71 ± 0.14

Q: What about the “normalised growth rate inhibition” value ([3]; 0.12 µM) of the same compound?
A: 0.379 ± 0.16

Q: What about the “normalised growth rate inhibition” value ([3]; 0.37 µM) of the same compound?
A: 0.0687 ± 0.081

Q: And the “normalised growth rate inhibition” value ([3]; 1.11 µM)?
A: -0.0473 ± 0.051

Q: What about the “normalised growth rate inhibition” value ([3]; 3.33 µM) of the same compound?
A: -0.0779 ± 0.063

Q: And the “normalised growth rate inhibition” value ([3]; 10 µM)?
A: -0.153 ± 0.1

Q: What about the “normalised growth rate inhibition” value ([4]; 0.04 µM) of the same compound?
A: 0.772 ± 0.075

Q: What about the “normalised growth rate inhibition” value ([4]; 0.12 µM) of the same compound?
A: 0.637 ± 0.1

Q: What about the “normalised growth rate inhibition” value ([4]; 0.37 µM) of the same compound?
A: 0.42 ± 0.25

Q: And the “normalised growth rate inhibition” value ([4]; 1.11 µM)?
A: 0.371 ± 0.12

Q: And the “normalised growth rate inhibition” value ([4]; 3.33 µM)?
A: 0.291 ± 0.18

Q: What about the “normalised growth rate inhibition” value ([4]; 10 µM) of the same compound?
A: 0.0948 ± 0.18

Q: And the “normalised growth rate inhibition” value ([5]; 0.04 µM)?
A: 0.676 ± 0.047

Q: What about the “normalised growth rate inhibition” value ([5]; 0.12 µM) of the same compound?
A: 0.397 ± 0.075

Q: And the “normalised growth rate inhibition” value ([5]; 0.37 µM)?
A: 0.249 ± 0.13

Q: What about the “normalised growth rate inhibition” value ([5]; 1.11 µM) of the same compound?
A: 0.174 ± 0.16

Q: And the “normalised growth rate inhibition” value ([5]; 3.33 µM)?
A: 0.148 ± 0.17

Q: And the “normalised growth rate inhibition” value ([5]; 10 µM)?
A: 0.0951 ± 0.13

Q: What about the “normalised growth rate inhibition” value ([6]; 0.04 µM) of the same compound?
A: 0.96 ± 0.066

Q: And the “normalised growth rate inhibition” value ([6]; 0.12 µM)?
A: 0.76 ± 0.22

Q: And the “normalised growth rate inhibition” value ([6]; 0.37 µM)?
A: 0.427 ± 0.24

Q: What about the “normalised growth rate inhibition” value ([6]; 1.11 µM) of the same compound?
A: 0.196 ± 0.067

Q: What about the “normalised growth rate inhibition” value ([6]; 3.33 µM) of the same compound?
A: 0.125 ± 0.032

Q: What about the “normalised growth rate inhibition” value ([6]; 10 µM) of the same compound?
A: 0.0826 ± 0.033

Q: O=C(NC1CCNCC1)c1n[nH]cc1NC(=O)c1c(Cl)cccc1Cl [AT-7519] was tested. Which “normalised growth rate inhibition” value ([1]; 0.04 µM) did it give?
A: 0.891 ± 0.088

Q: And the “normalised growth rate inhibition” value ([1]; 0.12 µM)?
A: 0.695 ± 0.31

Q: And the “normalised growth rate inhibition” value ([1]; 0.37 µM)?
A: 0.207 ± 0.43

Q: And the “normalised growth rate inhibition” value ([1]; 1.11 µM)?
A: -0.207 ± 0.12

Q: And the “normalised growth rate inhibition” value ([1]; 3.33 µM)?
A: -0.361 ± 0.21

Q: And the “normalised growth rate inhibition” value ([1]; 10 µM)?
A: -0.422 ± 0.18

Q: And the “normalised growth rate inhibition” value ([2]; 0.04 µM)?
A: 0.717 ± 0.24

Q: What about the “normalised growth rate inhibition” value ([2]; 0.12 µM) of the same compound?
A: 0.14 ± 0.11

Q: What about the “normalised growth rate inhibition” value ([2]; 0.37 µM) of the same compound?
A: -0.104 ± 0.074

Q: What about the “normalised growth rate inhibition” value ([2]; 1.11 µM) of the same compound?
A: -0.284 ± 0.15

Q: What about the “normalised growth rate inhibition” value ([2]; 3.33 µM) of the same compound?
A: -0.41 ± 0.18

Q: What about the “normalised growth rate inhibition” value ([2]; 10 µM) of the same compound?
A: -0.523 ± 0.16

Q: And the “normalised growth rate inhibition” value ([3]; 0.04 µM)?
A: 0.69 ± 0.41

Q: What about the “normalised growth rate inhibition” value ([3]; 0.12 µM) of the same compound?
A: 0.0423 ± 0.33

Q: And the “normalised growth rate inhibition” value ([3]; 0.37 µM)?
A: -0.267 ± 0.063

Q: And the “normalised growth rate inhibition” value ([3]; 1.11 µM)?
A: -0.302 ± 0.099

Q: And the “normalised growth rate inhibition” value ([3]; 3.33 µM)?
A: -0.33 ± 0.14

Q: And the “normalised growth rate inhibition” value ([3]; 10 µM)?
A: -0.404 ± 0.13

Q: And the “normalised growth rate inhibition” value ([4]; 0.04 µM)?
A: 0.732 ± 0.19

Q: And the “normalised growth rate inhibition” value ([4]; 0.12 µM)?
A: 0.291 ± 0.38

Q: What about the “normalised growth rate inhibition” value ([4]; 0.37 µM) of the same compound?
A: -0.171 ± 0.22

Q: And the “normalised growth rate inhibition” value ([4]; 1.11 µM)?
A: -0.291 ± 0.22

Q: What about the “normalised growth rate inhibition” value ([4]; 3.33 µM) of the same compound?
A: -0.355 ± 0.2

Q: What about the “normalised growth rate inhibition” value ([4]; 10 µM) of the same compound?
A: -0.388 ± 0.19

Q: And the “normalised growth rate inhibition” value ([5]; 0.04 µM)?
A: 0.899 ± 0.1

Q: What about the “normalised growth rate inhibition” value ([5]; 0.12 µM) of the same compound?
A: 0.564 ± 0.38

Q: And the “normalised growth rate inhibition” value ([5]; 0.37 µM)?
A: -0.102 ± 0.11

Q: And the “normalised growth rate inhibition” value ([5]; 1.11 µM)?
A: -0.14 ± 0.099

Q: And the “normalised growth rate inhibition” value ([5]; 3.33 µM)?
A: -0.242 ± 0.12

Q: And the “normalised growth rate inhibition” value ([5]; 10 µM)?
A: -0.295 ± 0.11

Q: And the “normalised growth rate inhibition” value ([6]; 0.04 µM)?
A: 0.969 ± 0.028

Q: And the “normalised growth rate inhibition” value ([6]; 0.12 µM)?
A: 0.88 ± 0.071

Q: And the “normalised growth rate inhibition” value ([6]; 0.37 µM)?
A: 0.222 ± 0.39

Q: What about the “normalised growth rate inhibition” value ([6]; 1.11 µM) of the same compound?
A: -0.156 ± 0.23

Q: What about the “normalised growth rate inhibition” value ([6]; 3.33 µM) of the same compound?
A: -0.256 ± 0.28

Q: And the “normalised growth rate inhibition” value ([6]; 10 µM)?
A: -0.296 ± 0.25
